Structures can show the parent of a compound that is named as a salt.
Experiments:
[1] = tested on: TT Cell; experiment: Cell inhibitory activity test (CCK8); type: cell-based; details: Homo sapiens, TT, Table 3, 72 hours incubation
Procedure: Cell Inhibitory Activity Test
1. preparing 90 μl of cell suspension in a 96-well plate with 4000 cells/well. Pre-incubating the culture plate in an incubator for 24 hours (37° C., 5% CO2).
2. adding 10 μl of test compounds of different concentrations to each well of cells, and each compound has multiple wells.
3. incubating the culture plate in the incubator for 72 hours.
4. adding 10 μl of CCK8 solution to each well (be careful not to generate bubbles in the well, otherwise they would affect the reading of the OD value).
5. incubating the culture plate in the incubator for 1-2 hours.
6. measuring the absorbance at 450 nm with a microplate reader.
7. according to the compound concentration and absorbance value, GraphpadPrism software was used to calculate the IC50 of each compound.

[2] = target: T1, Ret wt (Homo sapiens, UniProt P07949); experiment: HTRF kinase activity test, RET wild type; type: biochemical; details: Table 3; read-out: RET Enzyme (wild type) IC50
T1 construct: purchased Invitrogen PV3082
Procedure: This test combined peptide substrates and a single proprietary monoclonal antibody with HTRF technology, which was a highly sensitive and stable technology for detecting molecular interactions of proteins. The enzyme phosphorylates the substrate, then the Eu-labeled antibody binds to the phosphorylated substrate, and streptavidin-XL665 binds to all substrates. The TR-FRET signal was generated by the HTRF principle. […] Based on this, the inhibitory effect was evaluated.
The other compounds were diluted 3-fold gradiently with DMSO from the 10 mM stock solution to a total of 10 concentrations respectively.
Adding 4 volumes of distilled water to 1 volume of enzyme buffer 5×; 5 mM MgCl2; 1 mM DTT.
b) centrifuging the compound plate for 1 minute at 1000 g.
c) sealing the test board.
f) adding 4 μl of 1× kinase buffer to each well of the test plate, centrifuging the sample plate at 1000 g for 30 seconds, and placing it at room temperature for 10 minutes.
g) preparing a solution of 5× TK-substrate-biotin ([…]) in kinase buffer and 5×ATP (50 μM) in kinase buffer respectively.
h) starting the reaction by adding 2 μl STK-substrate-biotin and 2 μl ATP (prepared in the step g).
i) centrifuging the sample plate for 30 seconds at 1000 g. Sealing the test board and placing it at room temperature for 30 minutes.
) centrifuging at 1000 g for 30 seconds and placing it at room temperature for 1 hour.
The inhibition rate % was calculated as follows:
Inhibition rate %=[1−(fluorescence signal value of test compound−fluorescence signal value of positive control)/(average ratio of negative control−average ratio of positive control)]*100%
Ratio: generated from the measured fluorescence signal value
The average ratio of the positive control is the average ratio of the positive control (200 nM AT13148) in the sample plate;
The average ratio of negative controls is the average ratio of negative controls (0.1% DMSO) in the sample plate.
GraphPad 6.0 was used to fit the logarithm of the % inhibition rate and the compound concentration into a nonlinear regression (dose response−variable slope) to calculate the IC50 value.

T1 sequence (P07949 29-1114): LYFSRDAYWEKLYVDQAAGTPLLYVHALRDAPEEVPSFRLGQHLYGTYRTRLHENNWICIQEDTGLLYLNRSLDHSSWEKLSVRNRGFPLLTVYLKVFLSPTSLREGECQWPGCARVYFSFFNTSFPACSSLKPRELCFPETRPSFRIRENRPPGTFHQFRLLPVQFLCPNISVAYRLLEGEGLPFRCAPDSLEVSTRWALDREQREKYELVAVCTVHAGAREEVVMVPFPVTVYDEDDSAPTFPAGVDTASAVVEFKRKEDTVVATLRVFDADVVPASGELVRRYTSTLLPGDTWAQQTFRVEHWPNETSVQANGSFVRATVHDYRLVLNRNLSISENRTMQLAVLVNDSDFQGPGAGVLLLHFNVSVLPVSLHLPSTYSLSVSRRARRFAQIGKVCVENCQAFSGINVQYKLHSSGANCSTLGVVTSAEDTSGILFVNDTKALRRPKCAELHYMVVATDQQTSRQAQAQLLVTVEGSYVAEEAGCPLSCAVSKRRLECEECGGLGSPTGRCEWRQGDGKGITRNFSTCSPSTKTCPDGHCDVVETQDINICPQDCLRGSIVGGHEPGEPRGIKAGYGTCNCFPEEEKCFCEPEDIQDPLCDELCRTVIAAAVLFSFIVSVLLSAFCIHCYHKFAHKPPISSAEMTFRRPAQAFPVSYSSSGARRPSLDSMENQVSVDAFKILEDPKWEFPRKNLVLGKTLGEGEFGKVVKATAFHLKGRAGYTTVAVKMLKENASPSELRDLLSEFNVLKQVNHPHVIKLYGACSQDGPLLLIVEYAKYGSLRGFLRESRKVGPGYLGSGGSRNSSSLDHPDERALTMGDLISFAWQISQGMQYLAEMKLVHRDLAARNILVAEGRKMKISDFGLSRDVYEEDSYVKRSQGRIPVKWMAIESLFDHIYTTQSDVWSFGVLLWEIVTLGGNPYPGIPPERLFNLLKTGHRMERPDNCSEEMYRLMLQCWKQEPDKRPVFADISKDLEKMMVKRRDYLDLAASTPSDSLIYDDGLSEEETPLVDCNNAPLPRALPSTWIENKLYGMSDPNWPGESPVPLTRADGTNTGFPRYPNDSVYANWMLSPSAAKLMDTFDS

Structure (SMILES): CCN(CC)C(=O)N1CCN(c2ccc(-c3cc(-c4cnn(C)c4)cn4nc(N)c(C#N)c34)cn2)CC1 [APS016, 4-(5-(2-amino-3-cyano-6-(1-methyl-1H-pyrazol-4-yl)pyrazolo[1,5-a]pyridin-4-yl)pyridine-2-yl)-N,N-diethylpiperazine-1-carboxamide]
- IC50 [1]: 31.1 nM

Structure (SMILES): Cn1cc(-c2cc(-c3ccc(N4CCN(Cc5cncc(Cl)c5)CC4)nc3)c3c(C#N)c(N)nn3c2)cn1 [APS021]
- IC50 [1]: 120 nM

Structure (SMILES): COc1cccc(CN2CCN(c3ccc(-c4cc(-c5cnn(C)c5)cn5nc(N)c(C#N)c45)cn3)CC2)n1 [APS030, 2-amino-4-(6-(4-((6-methoxypyridin-2-yl)methyl)piperazin-1-yl)pyridin-3-yl)-6-(1-methyl-1H-pyrazol-4-yl)pyrazolo[1,5-a]pyridine-3-carbonitrile]
- IC50 [1]: 57.6 nM

Structure (SMILES): CN(C)c1ccc(CN2CCN(c3ccc(-c4cc(-c5cnn(C)c5)cn5nc(N)c(C#N)c45)cn3)CC2)cc1 [APS034, 2-amino-4-(6-(4-(4-(dimethylamino)benzyl)piperazin-1-yl)pyridin-3-yl)-6-(1-methyl-1H-pyrazole-4-yl)pyrazolo[1,5-a]pyridine-3-carbonitrile]
- IC50 [1]: 32.8 nM

Structure (SMILES): CN(C)c1ccc(CN2CCN(c3ccc(-c4cc(-c5cnn(C)c5)cn5nc(N)c(C#N)c45)cn3)CC2)cn1 [APS041, 2-amino-4-(6-(4-((6-(dimethylamino)pyridin-3-yl)methyl)piperazin-1-yl)pyridin-3-yl)-6-(1-methyl-1H-pyrazol-4-yl)pyrazolo[1,5-a]pyridine-3-carbonitrile]
- IC50 [1]: 32.8 nM

Structure (SMILES): Cn1cc(-c2cc(-c3ccc(N4CCN(C(=O)c5c(F)cccc5F)CC4)nc3)c3c(C#N)c(N)nn3c2)cn1 [APS062, 2-amino-4-(6-(4-(2,6-difluorobenzoyl)piperazin-1-yl)pyridin-3-yl)-6-(1-methyl-1H-pyrazole-4-yl)pyrazolo[1,5-a]pyridine-3-carbonitrile]
- IC50 [1]: 34.1 nM

Structure (SMILES): Cn1cc(-c2cc(-c3ccc(N4CCN(Cc5cnccn5)CC4)nc3)c3c(C#N)c(N)nn3c2)cn1 [APS064, 2-amino-6-(1-methyl-1H-pyrazol-4-yl)-4-(6-(4-(pyrazin-2-yl-methyl)piperazin-1-yl)pyridine-3-yl)pyrazolo[1,5-a]pyridine-3-carbonitrile]
- IC50 [1]: 150 nM

Structure (SMILES): Cc1nn2cc(-c3cnn(C)c3)cc(-c3ccc(N4CCN(C(=O)Cc5ccc(F)cn5)CC4)nc3)c2c1C#N [APS071, 2-methyl-4-(6-(4-(2-(5-fluoropyridin-2-yl)acetyl)piperazin-1-yl)pyridin-3-yl)-6-(1-methyl-1H-pyrazol-4-yl)pyrazolo[1,5-a]pyridine-3-carbonitrile]
- IC50 [2]: 64.6 nM

Structure (SMILES): Cc1nn2cc(-c3cnn(C)c3)cc(-c3ccc(N4CCC(Cc5ccccn5)CC4)nc3)c2c1C#N [APS072, 2-methyl-6-(1-methyl-1H-pyrazol-4-yl)-4-(6-(4-(pyridin-2-yl-methyl)piperidin-1-yl)pyridine-3-yl)pyrazolo[1,5-a]pyridine-3-carbonitrile]
- IC50 [2]: 78.3 nM

Structure (SMILES): C[C@@H]1CN(c2ccc(-c3cc(-c4cnn(C)c4)cn4nc(N)c(C#N)c34)cn2)CCN1Cc1ccccn1 [APS073, (R)-2-amino-6-(1-methyl-1H-pyrazol-4-yl)-4-(6-(3-methyl-4-(pyridin-2-yl-methyl)piperazine-1-yl)pyridin-3-yl)pyrazolo[1,5-a]pyridine-3-carbonitrile]
- IC50 [1]: 144 nM

Structure (SMILES): Cn1cc(-c2cc(-c3ccc(N4CCN(Cc5ccccc5)CC4)nc3)c3c(C#N)c(N)nn3c2)cn1 [APS074, 2-amino-4-(6-(4-benzylpiperazin-1-yl)pyridin-3-yl)-6-(1-methyl-1H-pyrazol-4-yl)pyrazolo[1,5-a]pyridine-3-carbonitrile]
- IC50 [1]: 25.2 nM

Structure (SMILES): Cn1cc(-c2cc(-c3ccc(N4CCN(Cc5cccnc5)CC4)nc3)c3c(C#N)c(N)nn3c2)cn1 [APS075, 2-amino-6-(1-methyl-1H-pyrazol-4-yl)-4-(6-(4-(pyridin-3-yl-methyl)piperazin-1-yl)pyridine-3-yl)pyrazolo[1,5-a]pyridine-3-carbonitrile]
- IC50 [1]: 122 nM

Structure (SMILES): C[C@@H]1CN(Cc2ccccn2)CCN1c1ccc(-c2cc(-c3cnn(C)c3)cn3nc(N)c(C#N)c23)cn1 [APS076, (R)-2-amino-6-(1-methyl-1H-pyrazol-4-yl)-4-(6-(2-methyl-4-(pyridin-2-yl-methyl)piperazine-1-yl)pyridin-3-yl)pyrazolo[1,5-a]pyridine-3-carbonitrile]
- IC50 [1]: 96.4 nM

Structure (SMILES): Cn1cc(-c2cc(-c3ccc(N4CCN(Cc5ccc(F)cc5)CC4)nc3)c3c(C#N)c(N)nn3c2)cn1 [APS077, 2-amino-4-(6-(4-(4-fluorobenzyl)piperazin-1-yl)pyridin-3-yl)-6-(1-methyl-1H-pyrazol-4-yl) pyrazolo[1,5-a]pyridine-3-carbonitrile]
- IC50 [1]: 58.3 nM

Structure (SMILES): Cn1cc(-c2cc(-c3ccc(N4CCN(Cc5ccncc5)CC4)nc3)c3c(C#N)c(N)nn3c2)cn1 [APS078, 2-amino-6-(1-methyl-1H-pyrazol-4-yl)-4-(6-(4-(pyridin-4-yl-methyl)piperazin-1-yl)pyridine-3-yl)pyrazolo[1,5-a]pyridine-3-carbonitrile]
- IC50 [1]: 57.1 nM

Structure (SMILES): Cn1cc(-c2cc(-c3ccc(N4CCN(Cc5ccc(F)c(F)c5)CC4)nc3)c3c(C#N)c(N)nn3c2)cn1 [APS079, 2-amino-4-(6-(4-(3,4-difluorobenzyl)piperazin-1-yl)pyridin-3-yl)-6-(1-methyl-1H-pyrazole-4-yl)pyrazolo[1,5-a]pyridine-3-carbonitrile]
- IC50 [1]: 120 nM

Structure (SMILES): COc1ccc(CN2CCN(c3ccc(-c4cc(-c5cnn(C)c5)cn5nc(O)c(C#N)c45)cn3)CC2)cn1 [APS083, 2-hydroxy-4-(6-(4-((6-methoxypyridin-3-yl)methyl)piperazin-1-yl)pyridin-3-yl)-6-(1-methyl-1H-pyrazol-4-yl)pyrazolo[1,5-a]pyridine-3-carbonitrile]
- IC50 [2]: 212 nM

Structure (SMILES): COc1ccc(CN2CCN(c3ccc(-c4cc(-c5cnn(C)c5)cn5nc(F)c(C#N)c45)cn3)CC2)cn1 [APS084, 2-fluoro-4-(6-(4-((6-methoxypyridin-3-yl)methyl)piperazin-1-yl)pyridin-3-yl)-6-(1-methyl-1H-pyrazol-4-yl)pyrazolo[1,5-a]pyridine-3-carbonitrile]
- IC50 [1]: 342 nM

Structure (SMILES): COc1ccc(CN2CCN(c3ccc(-c4cc(-c5cnn(C)c5)cn5nc(NC(C)=O)c(C#N)c45)cn3)CC2)cn1 [APS085, N-(3-cyano-4-(6-(4-((6-methoxypyridin-3-yl)methyl)piperazin-1-yl)pyridin-3-yl)-6-(1-methyl-1H-pyrazol-4-yl)pyrazolo[1,5-a]pyridin-2-yl)acetamide]
- IC50 [2]: 865 nM

Structure (SMILES): CNc1nn2cc(-c3cnn(C)c3)cc(-c3ccc(N4CCN(Cc5ccc(OC)nc5)CC4)nc3)c2c1C#N [APS086, 2-methylamino-4-(6-(4-((6-methoxypyridin-3-yl)methyl)piperazin-1-yl)pyridin-3-yl)-6-(1-methyl-1H-pyrazol-4-yl)pyrazolo[1,5-a]pyridine-3-carbonitrile]
- IC50 [2]: 234 nM

Structure (SMILES): COc1ccc(CN2C3CC2CN(c2cnc(-c4cc(OC[C@@H]5CNCCO5)cn5nc(F)c(C#N)c45)cn2)C3)cn1 [APS088, 2-fluoro-4-(5-(6-((6-methoxypyridin-3-yl)methyl)-3,6-diazabicyclo[3.1.1]heptan-3-yl)pyrazin-2-yl)-6-(((S)-morpholin-2-yl)methoxy)pyrazolo[1,5-a]pyridine-3-carbonitrile trifluoroacetate]
- IC50 [1]: 265 nM

Structure (SMILES): COc1ccc(CN2C3CC2CN(c2ccc(-c4cc(OCC(C)(C)OC)cn5nc(N)c(C#N)c45)cn2)C3)cn1 [APS110, 2-amino-6-(2-methoxy-2-methylpropoxy)-4-(6-(6-((6-methoxypyridin-3-yl)methyl)-3,6-diazabicyclo[3.1.1]heptan-3-yl)pyridin-3-yl)pyrazolo[1,5-a]pyridine-3-carbonitrile]
- IC50 [1]: 198 nM

Structure (SMILES): CCOc1cc(-c2ccc(N3CC4CC(C3)N4Cc3cncc(Cl)c3)nc2)c2c(C#N)c(N)nn2c1 [APS112, 2-amino-4-(6-(6-((5-chloropyridin-3-yl)methyl)-3,6-diazabicyclo[3.1.1]heptan-3-yl)pyridine-3-yl)-6-ethoxypyrazolo[1,5-a]pyridine-3-carbonitrile]
- IC50 [2]: 18.9 nM

Source: patent publication US20210379056A1, “SUBSTITUTED PYRAZOLE FUSED RING DERIVATIVE, PREPARATION METHOD THEREFOR, AND APPLICATION THEREOF” (Applied Pharmaceutical Science, Inc., priority 2018, published 2021)
